Reference: ChEMBL document CHEMBL5236595, “JDQ443, a Structurally Novel, Pyrazole-Based, Covalent Inhibitor of KRASG12C for the Treatment of Solid Tumors” (J Med Chem, 2022)
≈ marks a conversion by molar mass, not a printed value.

Key:
[1] = system: GTPase KRas (Homo sapiens), P01116 [G12C]; assay: Displacement of [acrylamide-2,3-3H2]-N-(3-fluoro-4-(2-methyl-3-(5-methyl-1H- indazole-4-yl)-1H-pyrrolo[ 2,3-b]pyridin-1-yl)-phenyl from KRAS G12C mutant (unknown origin) assessed as ratio of Kinact/Ki by competitive scintillation proximity assay
GTPase KRas = GTPase KRas (Homo sapiens, UniProt P01116, G12C); assay: Inhibition of KRAS G12C mutant in human NCI-H358 cells assessed as reduction in ERK phosphorylation incubated for 6 hrs by MSD assay; assay type: cell-based
[2] = Apparent permeability across apical to basolateral side in MDCK-MDR1 cells at 10 uM after 2 hrs by LC-MS/MS analysis; assay type: ADME, cell-based, Canis lupus familiaris; conditions: dog
[3] = Aqueous solubility of compound in pH 6.8; assay type: physicochemical; conditions: aqueous medium
[4] = Lipophilicity, logD of compound at pH 7.4; assay type: physicochemical; conditions: buffer
[5] = AUC in human MIA PaCa-2 cells xenografted mouse at 30 mg/kg, po; assay type: ADME, organism-based; set-up: dose 30 mg/kg, route po; conditions: in vivo
[6] = Cmax in human MIA PaCa-2 cells xenografted mouse at 30 mg/kg, po; assay type: ADME, organism-based; set-up: dose 30 mg/kg, route po; conditions: in vivo
[7] = system: GTPase KRas (Homo sapiens), P01116 [G12C]; assay: In vivo target occupancy at KRAS G12C mutant in human MIA PaCa-2 cells xenografted mouse assessed as decrease in free KRAS G12C level at 30 mg/kg, po after 6 hrs; assay type: functional, organism-based
[8] = system: GTPase KRas (Homo sapiens), P01116 [G12C]; assay: In vivo target occupancy at KRAS G12C mutant in human MIA PaCa-2 cells xenografted mouse assessed as decrease in free KRAS G12C level at 30 mg/kg, po after 24 hrs; assay type: functional, organism-based
[9] = system: GTPase KRas (Homo sapiens), P01116 [G12C]; assay: In vivo target occupancy at KRAS G12C mutant in human MIA PaCa-2 cells xenografted mouse assessed as decrease in […] expression at 30 mg/kg, po after 6 hrs; assay type: functional, organism-based
[10] = system: GTPase KRas (Homo sapiens), P01116 [G12C]; assay: In vivo target occupancy at KRAS G12C mutant in human MIA PaCa-2 cells xenografted mouse assessed as decrease in […] expression at 30 mg/kg, po after 24 hrs; assay type: functional, organism-based
[11] = Aqueous solubility of compound in pH 4; assay type: physicochemical; conditions: aqueous medium
[12] = Cysteine reactivity in pH 7.4 phosphate buffer assessed as compound half life at 2 uM in presence of GSH

| Compound | Ratio [1] | IC50 (GTPase KRas) | Papp A→B at 2 h, 10 µM [2] | solubility [3] | logD [4] | other results |
| --- | --- | --- | --- | --- | --- | --- |
| C=CC(=O)Nc1ccc(-n2nc(C(C)C)c(-c3c(C)ccc4[nH]ncc34)c2C)cc1 | 0.6 mM⁻¹ s⁻¹ |  |  |  |  |  |
| C=CC(=O)N1CC2(CC(n3nc(-c4ccc5[nH]ncc5c4)c(-c4c(Cl)c(C)cc5[nH]ncc45)c3C)C2)C1 | 116 mM⁻¹ s⁻¹ | 0.02 µM | 0.6 ×10⁻⁶ cm/s | 10 µM (≈ 5.12 µg/mL) | 4.6 |  |
| C=CC(=O)N1CC2(CC(n3nc(-c4cccnc4)c(-c4c(Cl)c(C)cc5[nH]ncc45)c3C)C2)C1 | 10 mM⁻¹ s⁻¹ | 0.09 µM |  |  |  |  |
| C=CC(=O)N1CC2(CC(n3nc(-c4ccc5nn(CCOC)cc5c4)c(-c4c(Cl)c(C)cc5[nH]ncc45)c3C)C2)C1 | 225 mM⁻¹ s⁻¹ | 0.004 µM | 5.4 ×10⁻⁶ cm/s | 30 µM (≈ 17.1 µg/mL) | 4.2 | AUC [5]: 7.3 µM·h; Cmax [6]: 4.3 µM; Occ [7]: 37%; Occ [8]: 78%; Occ [9]: 45%; Occ [10]: 59% |
| C=CC(=O)Nc1ccc(-n2nc(C)c(-c3c(C)ccc4[nH]ncc34)c2C)cc1 | 0.1 mM⁻¹ s⁻¹ |  |  |  |  |  |
| C=CC(=O)N1CC2(CC(n3nc(C(C)C)c(-c4c(C)ccc5[nH]ncc45)c3C)C2)C1 | 0.4 mM⁻¹ s⁻¹ | 3.9 µM |  |  |  |  |
| C=CC(=O)N1CC2(CC(n3nc(-c4ccc5nn(CCN6CCOCC6)cc5c4)c(-c4c(Cl)c(C)cc5[nH]ncc45)c3C)C2)C1 | 190 mM⁻¹ s⁻¹ | 0.01 µM | 2.8 ×10⁻⁶ cm/s | 30 µM (≈ 18.8 µg/mL) | 4.2 | solubility [11]: > 1000 µM |
| C=CC(=O)N1CC2(CC(n3nc(C4CCCCC4)c(-c4c(Cl)ccc5[nH]ncc45)c3C)C2)C1 | 0.9 mM⁻¹ s⁻¹ | 0.7 µM |  |  |  |  |
| C=CC(=O)Nc1ccc(-c2nn(C(C)C)c(-c3c(C)ccc4[nH]ncc34)c2C)c(F)c1 | 0.2 mM⁻¹ s⁻¹ |  |  |  |  | T1/2 [12]: 57 min |
| C=CC(=O)N1CC2(CC(n3nc(-c4cccnc4)c(-c4c(Cl)c(C)cc5[nH]ncc45)c3CC#N)C2)C1 | 0.2 mM⁻¹ s⁻¹ |  |  |  |  |  |
| C=CC(=O)N1CC2(CC(n3nc(-c4ccc5c(c4)ncn5C)c(-c4c(Cl)c(C)cc5[nH]ncc45)c3C)C2)C1 | 24 mM⁻¹ s⁻¹ | 0.14 µM | 3.8 ×10⁻⁶ cm/s | 40 µM (≈ 21 µg/mL) | 3.9 |  |
| C=CC(=O)N1CC2(CC(n3nc(-c4cccnc4)c(-c4c(Cl)ccc5[nH]ncc45)c3C)C2)C1 | 1.3 mM⁻¹ s⁻¹ | 0.5 µM |  |  |  |  |
